{
  "source": "ChEMBL document CHEMBL1201862",
  "about": "“PubChem BioAssay data set” (2004)",
  "assay_type_in_all_cases": "functional",
  "key": {"Activated CDC42 kinase 1": {"target": "Activated CDC42 kinase 1 (Homo sapiens, UniProt Q07912)", "sequence (Q07912 whole entry)": "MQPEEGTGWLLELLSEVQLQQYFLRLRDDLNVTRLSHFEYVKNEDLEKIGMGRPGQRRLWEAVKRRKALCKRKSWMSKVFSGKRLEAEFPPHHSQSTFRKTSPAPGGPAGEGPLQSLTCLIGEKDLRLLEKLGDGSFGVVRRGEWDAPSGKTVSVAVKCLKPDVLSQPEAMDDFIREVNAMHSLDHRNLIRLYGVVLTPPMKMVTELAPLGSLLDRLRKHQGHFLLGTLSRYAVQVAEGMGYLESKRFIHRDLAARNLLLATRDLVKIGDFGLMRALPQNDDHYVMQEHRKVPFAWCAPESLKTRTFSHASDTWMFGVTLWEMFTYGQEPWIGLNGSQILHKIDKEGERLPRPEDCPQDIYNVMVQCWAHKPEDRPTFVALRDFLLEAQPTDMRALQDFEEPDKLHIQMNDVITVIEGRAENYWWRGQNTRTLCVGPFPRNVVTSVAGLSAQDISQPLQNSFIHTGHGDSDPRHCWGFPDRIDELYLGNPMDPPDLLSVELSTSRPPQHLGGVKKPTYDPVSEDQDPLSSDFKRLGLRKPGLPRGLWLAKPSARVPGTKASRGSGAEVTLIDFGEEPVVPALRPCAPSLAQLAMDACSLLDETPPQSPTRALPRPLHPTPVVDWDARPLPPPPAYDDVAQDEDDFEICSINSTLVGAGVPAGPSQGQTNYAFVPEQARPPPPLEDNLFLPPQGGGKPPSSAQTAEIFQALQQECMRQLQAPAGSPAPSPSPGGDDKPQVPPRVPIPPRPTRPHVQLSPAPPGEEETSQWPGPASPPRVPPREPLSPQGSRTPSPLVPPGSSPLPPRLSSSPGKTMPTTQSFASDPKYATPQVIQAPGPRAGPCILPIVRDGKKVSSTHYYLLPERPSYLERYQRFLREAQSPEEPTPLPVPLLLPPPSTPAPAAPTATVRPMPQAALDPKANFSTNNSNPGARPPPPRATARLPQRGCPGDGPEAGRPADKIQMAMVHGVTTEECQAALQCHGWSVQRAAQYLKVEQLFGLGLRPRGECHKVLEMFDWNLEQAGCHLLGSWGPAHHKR", "test": "Navigating the Kinome. Panel member name: ACK1"}, "[1]": {"target": "ALK tyrosine kinase receptor (Homo sapiens, UniProt Q9UM73)"}, "[2]": {"target": "G protein-coupled receptor kinase 5 (Homo sapiens, UniProt P34947)", "test": "Navigating the Kinome. Panel member name: GPRK5"}, "[3]": {"target": "Cyclin-dependent kinase 5 (Homo sapiens, UniProt Q00535)"}, "[4]": {"target": "Fibroblast growth factor receptor 1 (Homo sapiens, UniProt P11362)"}, "[5]": {"target": "Mitogen-activated protein kinase 9 (Homo sapiens, UniProt P45984)", "sequence (P45984 whole entry)": "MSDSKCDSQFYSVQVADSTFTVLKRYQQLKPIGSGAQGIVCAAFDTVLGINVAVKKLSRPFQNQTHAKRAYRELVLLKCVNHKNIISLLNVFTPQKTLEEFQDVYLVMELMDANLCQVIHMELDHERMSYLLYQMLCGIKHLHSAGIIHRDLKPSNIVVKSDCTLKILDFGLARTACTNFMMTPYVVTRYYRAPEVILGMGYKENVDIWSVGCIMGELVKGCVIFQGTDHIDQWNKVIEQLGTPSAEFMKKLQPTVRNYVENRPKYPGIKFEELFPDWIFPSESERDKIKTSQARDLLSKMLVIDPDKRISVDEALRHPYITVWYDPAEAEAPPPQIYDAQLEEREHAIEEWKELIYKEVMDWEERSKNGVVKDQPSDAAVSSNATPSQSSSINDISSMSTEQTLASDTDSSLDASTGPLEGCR"}, "[6]": {"target": "Insulin-like growth factor 1 receptor (Homo sapiens, UniProt P08069)", "test": "Navigating the Kinome. Panel member name: IGF1R"}, "[7]": {"target": "Dual specificity tyrosine-phosphorylation-regulated kinase 1B (Homo sapiens, UniProt Q9Y463)", "test": "Navigating the Kinome. Panel member name: DYRK1B"}, "[8]": {"target": "Platelet-derived growth factor receptor alpha (Homo sapiens, UniProt P16234)", "sequence (P16234 whole entry)": "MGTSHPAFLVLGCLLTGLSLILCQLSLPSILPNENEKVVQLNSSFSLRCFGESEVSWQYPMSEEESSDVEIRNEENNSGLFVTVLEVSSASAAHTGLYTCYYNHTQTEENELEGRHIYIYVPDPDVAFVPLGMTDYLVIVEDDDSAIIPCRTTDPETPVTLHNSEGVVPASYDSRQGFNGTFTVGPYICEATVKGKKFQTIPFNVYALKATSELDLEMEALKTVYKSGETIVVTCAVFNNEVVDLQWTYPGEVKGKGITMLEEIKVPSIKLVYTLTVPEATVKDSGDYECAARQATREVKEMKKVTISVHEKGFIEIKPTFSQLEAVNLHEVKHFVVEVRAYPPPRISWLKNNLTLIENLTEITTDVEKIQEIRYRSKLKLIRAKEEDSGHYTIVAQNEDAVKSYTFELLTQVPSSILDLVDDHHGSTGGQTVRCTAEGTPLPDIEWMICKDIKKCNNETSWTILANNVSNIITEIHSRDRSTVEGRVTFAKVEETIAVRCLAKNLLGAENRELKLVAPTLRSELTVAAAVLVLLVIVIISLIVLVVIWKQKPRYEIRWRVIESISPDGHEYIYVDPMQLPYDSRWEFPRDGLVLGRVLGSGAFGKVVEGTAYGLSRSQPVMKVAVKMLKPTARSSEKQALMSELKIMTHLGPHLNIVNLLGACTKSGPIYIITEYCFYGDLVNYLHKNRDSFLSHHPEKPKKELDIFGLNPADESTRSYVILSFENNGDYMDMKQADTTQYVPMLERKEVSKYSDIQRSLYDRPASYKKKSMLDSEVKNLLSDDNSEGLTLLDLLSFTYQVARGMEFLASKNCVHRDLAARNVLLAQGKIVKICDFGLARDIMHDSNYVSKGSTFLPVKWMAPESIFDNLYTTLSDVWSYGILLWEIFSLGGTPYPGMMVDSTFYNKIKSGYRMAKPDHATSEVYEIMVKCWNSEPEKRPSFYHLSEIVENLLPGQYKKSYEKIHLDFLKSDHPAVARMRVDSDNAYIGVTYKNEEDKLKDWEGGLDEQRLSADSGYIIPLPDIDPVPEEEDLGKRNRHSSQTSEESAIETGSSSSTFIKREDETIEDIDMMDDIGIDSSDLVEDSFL", "test": "Navigating the Kinome. Panel member name: PDGFRA"}, "[9]": {"target": "Hepatocyte growth factor receptor (Homo sapiens, UniProt P08581)"}, "[10]": {"target": "Mitogen-activated protein kinase 14 (Homo sapiens, UniProt Q16539)"}, "[11]": {"target": "Serine/threonine-protein kinase pim-1 (Homo sapiens, UniProt P11309)", "sequence (P11309 whole entry)": "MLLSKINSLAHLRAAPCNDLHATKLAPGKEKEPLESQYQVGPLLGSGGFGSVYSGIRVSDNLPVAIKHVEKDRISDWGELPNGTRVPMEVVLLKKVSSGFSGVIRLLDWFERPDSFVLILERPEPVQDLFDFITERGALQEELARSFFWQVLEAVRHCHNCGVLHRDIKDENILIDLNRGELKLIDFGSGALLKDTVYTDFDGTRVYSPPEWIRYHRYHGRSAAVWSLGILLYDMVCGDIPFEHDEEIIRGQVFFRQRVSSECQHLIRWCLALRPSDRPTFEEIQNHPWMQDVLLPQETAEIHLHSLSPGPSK"}, "[12]": {"target": "T1, Serine/threonine-protein kinase Chk1 (Homo sapiens, UniProt O14757)", "T1 sequence (O14757 whole entry)": "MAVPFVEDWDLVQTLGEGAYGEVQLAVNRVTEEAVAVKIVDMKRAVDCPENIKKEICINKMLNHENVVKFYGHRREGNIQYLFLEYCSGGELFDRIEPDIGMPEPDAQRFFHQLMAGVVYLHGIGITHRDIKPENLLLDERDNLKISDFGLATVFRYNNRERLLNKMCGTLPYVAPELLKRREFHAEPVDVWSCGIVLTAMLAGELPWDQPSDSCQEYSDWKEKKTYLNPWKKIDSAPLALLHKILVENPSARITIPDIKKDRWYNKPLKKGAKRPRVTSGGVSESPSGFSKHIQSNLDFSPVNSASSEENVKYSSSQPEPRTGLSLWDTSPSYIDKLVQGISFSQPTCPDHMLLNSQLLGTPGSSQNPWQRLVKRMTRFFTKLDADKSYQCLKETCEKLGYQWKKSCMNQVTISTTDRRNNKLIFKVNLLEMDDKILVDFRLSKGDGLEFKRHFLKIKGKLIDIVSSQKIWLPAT"}, "[13]": {"target": "Vascular endothelial growth factor receptor 1 (Homo sapiens, UniProt P17948)"}, "[14]": {"target": "T2, Receptor-type tyrosine-protein kinase FLT3 (Homo sapiens, UniProt P36888)", "T2 sequence (P36888 whole entry)": "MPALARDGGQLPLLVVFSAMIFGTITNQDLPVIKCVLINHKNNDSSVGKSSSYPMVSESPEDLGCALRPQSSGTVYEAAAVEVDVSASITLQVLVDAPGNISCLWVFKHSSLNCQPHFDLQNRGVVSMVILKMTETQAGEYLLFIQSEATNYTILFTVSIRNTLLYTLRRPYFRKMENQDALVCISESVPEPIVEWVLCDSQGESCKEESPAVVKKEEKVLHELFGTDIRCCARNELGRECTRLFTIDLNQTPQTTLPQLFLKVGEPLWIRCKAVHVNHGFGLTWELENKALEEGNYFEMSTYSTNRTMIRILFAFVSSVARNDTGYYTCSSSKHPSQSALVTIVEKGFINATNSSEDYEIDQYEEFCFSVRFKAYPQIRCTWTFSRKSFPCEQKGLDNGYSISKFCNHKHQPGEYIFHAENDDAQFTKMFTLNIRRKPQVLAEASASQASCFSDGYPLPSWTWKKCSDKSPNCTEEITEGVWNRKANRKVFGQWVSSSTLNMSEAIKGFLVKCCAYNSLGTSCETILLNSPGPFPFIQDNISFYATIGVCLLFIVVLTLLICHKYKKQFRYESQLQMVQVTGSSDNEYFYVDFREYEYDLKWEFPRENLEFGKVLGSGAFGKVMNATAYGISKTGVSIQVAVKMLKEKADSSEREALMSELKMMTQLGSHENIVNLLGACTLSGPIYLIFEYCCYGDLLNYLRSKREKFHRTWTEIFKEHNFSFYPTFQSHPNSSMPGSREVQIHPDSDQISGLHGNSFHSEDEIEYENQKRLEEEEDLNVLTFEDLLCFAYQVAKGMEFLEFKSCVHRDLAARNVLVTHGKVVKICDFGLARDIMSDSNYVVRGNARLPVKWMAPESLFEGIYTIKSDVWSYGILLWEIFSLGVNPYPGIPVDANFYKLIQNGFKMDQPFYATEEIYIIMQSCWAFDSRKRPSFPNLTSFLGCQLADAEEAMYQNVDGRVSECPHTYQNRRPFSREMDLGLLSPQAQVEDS"}, "[15]": {"target": "Dual specificity protein kinase CLK2 (Homo sapiens, UniProt P49760)", "sequence (P49760 whole entry)": "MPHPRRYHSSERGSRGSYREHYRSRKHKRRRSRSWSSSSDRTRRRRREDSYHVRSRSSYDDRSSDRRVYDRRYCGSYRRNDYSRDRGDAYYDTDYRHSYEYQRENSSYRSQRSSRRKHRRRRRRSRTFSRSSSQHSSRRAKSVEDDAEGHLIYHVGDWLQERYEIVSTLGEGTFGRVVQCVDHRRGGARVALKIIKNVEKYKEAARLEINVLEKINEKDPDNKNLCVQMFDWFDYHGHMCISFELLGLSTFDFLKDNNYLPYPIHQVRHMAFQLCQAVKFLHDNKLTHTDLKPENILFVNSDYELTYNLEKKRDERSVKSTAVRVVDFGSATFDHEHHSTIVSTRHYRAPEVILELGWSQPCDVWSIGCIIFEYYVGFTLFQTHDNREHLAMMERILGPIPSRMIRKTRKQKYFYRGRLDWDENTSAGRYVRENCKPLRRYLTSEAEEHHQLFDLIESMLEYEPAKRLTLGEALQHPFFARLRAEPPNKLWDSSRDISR"}, "[16]": {"target": "Serine/threonine-protein kinase PAK 4 (Homo sapiens, UniProt O96013)", "sequence (O96013 whole entry)": "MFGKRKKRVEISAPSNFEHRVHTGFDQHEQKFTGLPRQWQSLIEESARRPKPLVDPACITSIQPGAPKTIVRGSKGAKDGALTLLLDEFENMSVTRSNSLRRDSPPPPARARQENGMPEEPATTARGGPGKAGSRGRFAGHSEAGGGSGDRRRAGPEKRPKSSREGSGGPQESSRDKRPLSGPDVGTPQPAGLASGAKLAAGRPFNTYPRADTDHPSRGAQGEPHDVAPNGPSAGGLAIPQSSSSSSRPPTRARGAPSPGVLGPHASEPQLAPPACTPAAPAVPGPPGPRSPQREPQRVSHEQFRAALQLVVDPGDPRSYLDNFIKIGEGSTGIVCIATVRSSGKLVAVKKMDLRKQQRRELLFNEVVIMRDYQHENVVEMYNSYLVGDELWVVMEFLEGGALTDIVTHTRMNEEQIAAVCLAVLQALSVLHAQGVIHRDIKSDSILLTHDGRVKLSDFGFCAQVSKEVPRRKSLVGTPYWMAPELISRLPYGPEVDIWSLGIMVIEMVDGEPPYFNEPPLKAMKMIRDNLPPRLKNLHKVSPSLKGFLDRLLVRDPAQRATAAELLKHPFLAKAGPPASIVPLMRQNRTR"}, "[17]": {"target": "Leukocyte tyrosine kinase receptor (Homo sapiens, UniProt P29376)", "sequence (P29376 whole entry)": "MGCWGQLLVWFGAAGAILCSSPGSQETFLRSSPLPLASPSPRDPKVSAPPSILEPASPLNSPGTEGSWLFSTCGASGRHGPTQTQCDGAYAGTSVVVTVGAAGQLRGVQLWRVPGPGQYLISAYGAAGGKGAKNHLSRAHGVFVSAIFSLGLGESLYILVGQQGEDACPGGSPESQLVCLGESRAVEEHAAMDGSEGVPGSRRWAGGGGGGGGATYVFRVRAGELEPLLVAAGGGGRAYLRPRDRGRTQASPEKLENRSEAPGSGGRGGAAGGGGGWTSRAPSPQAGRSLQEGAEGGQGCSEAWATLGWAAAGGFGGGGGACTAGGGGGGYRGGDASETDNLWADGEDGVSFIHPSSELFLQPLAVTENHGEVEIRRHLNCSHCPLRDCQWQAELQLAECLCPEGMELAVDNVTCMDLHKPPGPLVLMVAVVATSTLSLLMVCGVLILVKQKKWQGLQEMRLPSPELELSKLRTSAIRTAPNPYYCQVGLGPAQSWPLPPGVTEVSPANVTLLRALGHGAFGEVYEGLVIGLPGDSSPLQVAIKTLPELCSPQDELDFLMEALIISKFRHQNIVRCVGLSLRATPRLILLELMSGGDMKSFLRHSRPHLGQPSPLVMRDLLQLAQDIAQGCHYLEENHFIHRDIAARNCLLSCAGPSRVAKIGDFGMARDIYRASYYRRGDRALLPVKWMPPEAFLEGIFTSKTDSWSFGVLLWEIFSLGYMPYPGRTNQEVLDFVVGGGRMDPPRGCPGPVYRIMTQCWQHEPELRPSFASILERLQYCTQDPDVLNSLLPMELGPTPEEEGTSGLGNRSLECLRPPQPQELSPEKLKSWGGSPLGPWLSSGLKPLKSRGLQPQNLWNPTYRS", "test": "Navigating the Kinome. Panel member name: LTK"}, "[18]": {"target": "Tyrosine-protein kinase receptor TYRO3 (Homo sapiens, UniProt Q06418)"}, "Aurora kinase B": {"target": "Aurora kinase B (Homo sapiens, UniProt Q96GD4)"}},
  "note": "Activity calls are given as the source filed them.",
  "data": [
    {"smiles": "OC1CCC(Nc2nc(Cl)cc(-c3c[nH]c4ncccc34)n2)CC1", "note": "(stereo not given)", "values": [
      {"measurement": "Ki", "setting": "Activated CDC42 kinase 1", "result": "3160 nM (active)"},
      {"measurement": "pKi", "setting": "Activated CDC42 kinase 1", "result": 5.5},
      {"measurement": "Ki", "setting": "[1]", "result": "> 1260 nM (inactive)"},
      {"measurement": "Ki", "setting": "[2]", "result": "1580 nM (active)"},
      {"measurement": "pKi", "setting": "[2]", "result": 5.8},
      {"measurement": "Ki", "setting": "[3]", "result": "10 nM (active)"},
      {"measurement": "pKi", "setting": "[3]", "result": 8},
      {"measurement": "Ki", "setting": "[4]", "result": "2000 nM (active)"},
      {"measurement": "pKi", "setting": "[4]", "result": 5.7},
      {"measurement": "Ki", "setting": "[5]", "result": "251 nM (active)"},
      {"measurement": "pKi", "setting": "[5]", "result": 6.6},
      {"measurement": "Ki", "setting": "[6]", "result": "> 2000 nM (inactive)"},
      {"measurement": "Ki", "setting": "[7]", "result": "2.51 nM (active)"},
      {"measurement": "pKi", "setting": "[7]", "result": 8.6},
      {"measurement": "Ki", "setting": "[8]", "result": "1000 nM (active)"},
      {"measurement": "pKi", "setting": "[8]", "result": 6},
      {"measurement": "Ki", "setting": "[9]", "result": "> 3160 nM (inactive)"},
      {"measurement": "Ki", "setting": "[10]", "result": "> 3980 nM (inactive)"},
      {"measurement": "Ki", "setting": "[11]", "result": "1000 nM (active)"},
      {"measurement": "pKi", "setting": "[11]", "result": 6},
      {"measurement": "Ki", "setting": "[12]", "result": "398 nM (active)"},
      {"measurement": "pKi", "setting": "[12]", "result": 6.4},
      {"measurement": "Ki", "setting": "[13]", "result": "158 nM (active)"},
      {"measurement": "pKi", "setting": "[13]", "result": 6.8},
      {"measurement": "Ki", "setting": "[14]", "result": "12.6 nM (active)"},
      {"measurement": "pKi", "setting": "[14]", "result": 7.9},
      {"measurement": "Ki", "setting": "[15]", "result": "7.94 nM (active)"},
      {"measurement": "pKi", "setting": "[15]", "result": 8.1},
      {"measurement": "Ki", "setting": "[16]", "result": "25.1 nM (active)"},
      {"measurement": "pKi", "setting": "[16]", "result": 7.6},
      {"measurement": "Ki", "setting": "[17]", "result": "251 nM (active)"},
      {"measurement": "pKi", "setting": "[17]", "result": 6.6},
      {"measurement": "Ki", "setting": "[18]", "result": "> 2000 nM (inactive)"},
      {"measurement": "Ki", "setting": "Aurora kinase B", "result": "501 nM (active)"},
      {"measurement": "pKi", "setting": "Aurora kinase B", "result": 6.3}
    ]},
    {"smiles": "COc1cccc(CNC(=O)c2cnc(-c3ccncc3)nc2)c1", "values": [
      {"measurement": "Ki", "setting": "Activated CDC42 kinase 1", "result": "> 3980 nM (inactive)"},
      {"measurement": "Ki", "setting": "[1]", "result": "> 6310 nM (inactive)"},
      {"measurement": "Ki", "setting": "[2]", "result": "3980 nM (active)"},
      {"measurement": "Ki", "setting": "[3]", "result": "> 3160 nM (inactive)"},
      {"measurement": "Ki", "setting": "[4]", "result": "> 3980 nM (inactive)"},
      {"measurement": "Ki", "setting": "[5]", "result": "> 3980 nM (inactive)"},
      {"measurement": "Ki", "setting": "[6]", "result": "> 2510 nM (inactive)"},
      {"measurement": "Ki", "setting": "[7]", "result": "> 2510 nM (inactive)"},
      {"measurement": "Ki", "setting": "[8]", "result": "> 2510 nM (inactive)"},
      {"measurement": "Ki", "setting": "[9]", "result": "> 2510 nM (inactive)"},
      {"measurement": "Ki", "setting": "[10]", "result": "> 3980 nM (inactive)"},
      {"measurement": "Ki", "setting": "[11]", "result": "> 6310 nM (inactive)"},
      {"measurement": "Ki", "setting": "[12]", "result": "> 3160 nM (inactive)"},
      {"measurement": "Ki", "setting": "[13]", "result": "> 3980 nM (inactive)"},
      {"measurement": "Ki", "setting": "[14]", "result": "> 3160 nM (inactive)"},
      {"measurement": "Ki", "setting": "[15]", "result": "> 3980 nM (inactive)"},
      {"measurement": "Ki", "setting": "[16]", "result": "> 5010 nM (inactive)"},
      {"measurement": "Ki", "setting": "[17]", "result": "> 2510 nM (inactive)"},
      {"measurement": "Ki", "setting": "[18]", "result": "> 3160 nM (inactive)"},
      {"measurement": "Ki", "setting": "Aurora kinase B", "result": "> 3980 nM (inactive)"}
    ]}
  ]
}
